Among the data in article PMC9608490, “Design, Synthesis, Crystal Structure, In Vitro and In Silico Evaluation of New N′-Benzylidene-4-tert-butylbenzohydrazide Derivatives as Potent Urease Inhibitors” (Molecules, 2022) are IC50 values, retold here.

For this assay, the target named is Jack bean urease (Canavalia ensiformis, UniProt P07374). Put plainly: In vitro urease inhibition assay. It counts as biochemical. Here is the method:
The measurement of urease inhibitory activity was carried out according to the literature method. The assay mixture containing 75 μL of Jack bean urease and 75 μL of tested compounds with various concentrations (dissolved in DMSO) was pre-incubated for 15 min on a 96-well assay plate. Acetohydroxamic acid was used as a reference. Then 75 μL of phosphate buffer at pH 6.8 containing phenol red (0.18 mmol·L^−1) and urea (400 mmol·L^−1) were added and incubated at room temperature. The reaction time required for enough ammonium carbonate to form to raise the pH phosphate buffer from 6.8 to 7.7 was measured by a microplate reader (560 nm), with the end-point being determined by the color change of the phenol-red indicator.

Sequence of Jack bean urease (P07374 whole entry, looked up): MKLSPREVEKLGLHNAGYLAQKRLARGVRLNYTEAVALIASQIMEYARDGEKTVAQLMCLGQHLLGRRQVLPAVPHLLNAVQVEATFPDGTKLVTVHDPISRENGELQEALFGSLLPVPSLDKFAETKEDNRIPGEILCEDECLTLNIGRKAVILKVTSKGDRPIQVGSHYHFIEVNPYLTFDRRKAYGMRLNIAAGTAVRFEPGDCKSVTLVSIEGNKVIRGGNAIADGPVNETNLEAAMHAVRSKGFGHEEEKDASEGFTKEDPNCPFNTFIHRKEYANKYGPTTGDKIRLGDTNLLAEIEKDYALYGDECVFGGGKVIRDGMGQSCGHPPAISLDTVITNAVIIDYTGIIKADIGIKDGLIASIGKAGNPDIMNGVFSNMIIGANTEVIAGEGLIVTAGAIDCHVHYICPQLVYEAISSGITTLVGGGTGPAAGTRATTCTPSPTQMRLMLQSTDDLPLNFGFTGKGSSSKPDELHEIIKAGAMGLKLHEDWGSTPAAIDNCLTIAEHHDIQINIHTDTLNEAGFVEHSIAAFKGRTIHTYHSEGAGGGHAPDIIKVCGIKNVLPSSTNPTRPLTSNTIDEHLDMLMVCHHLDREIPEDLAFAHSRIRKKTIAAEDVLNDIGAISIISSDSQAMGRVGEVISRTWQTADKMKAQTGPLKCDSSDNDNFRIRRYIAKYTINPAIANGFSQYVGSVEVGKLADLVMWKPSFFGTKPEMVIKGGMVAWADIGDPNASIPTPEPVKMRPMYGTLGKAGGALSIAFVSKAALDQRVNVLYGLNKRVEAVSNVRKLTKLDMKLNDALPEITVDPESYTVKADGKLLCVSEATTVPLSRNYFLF

Broadly, the IC50 is the point on the concentration scale where inhibition reaches its midpoint. Higher therefore signals weaker potency. Take `COc1cc(C=NNC(=O)c2ccc(C(C)(C)C)cc2)ccc1F` [Compound 4, 4-(Tert-butyl)-N′-(4-fluoro-3-methoxybenzylidene)benzohydrazide]: half-maximal inhibition (IC50) required 88.8 ± 7.71 µM. As for `COc1cccc(/C=N/NC(=O)c2ccc(C(C)(C)C)cc2)c1O` [Compound 5, 4-(t-But)-N′-(2-Hydroxy-3-methoxybenzylidene)benzohydrazide], half-maximal inhibition (IC50) was put at 56.6 ± 3.18 µM. `CC(C)(C)c1ccc(C(=O)NN=Cc2c3ccccc3cc3ccccc23)cc1` [Compound 6, N′-(Anthracen-9-ylmethylene)-4-(tert-butyl)benzohydrazide] had a concentration for half-maximal inhibition (IC50) of 13.3 ± 0.58 µM. In turn, `COc1ccc(Br)cc1C=NNC(=O)c1ccc(C(C)(C)C)cc1` [Compound 7, N′-(5-Bromo-2-methoxybenzylidene)-4-(t-But)benzohydrazide] returned a concentration for half-maximal inhibition (IC50) of 64.5 ± 3.97 µM. In the case of `CC(C)(C)c1ccc(C(=O)NN=Cc2ccc(O)c(O)c2)cc1` [Compound 8, N′-(3,4-Dihydroxybenzylidene)-4-tert-butylbenzohydrazide] it was 80 ± 7.43 µM. Consider `COc1ccc(C=NNC(=O)c2ccc(C(C)(C)C)cc2)c(OC)c1OC` [Compound 9, N′-(2,3,4-Trimethoxybenzylidene)-4-tert-butylbenzohydrazide], for which the half-inhibitory concentration (IC50) amounted to 63.5 ± 3.97 µM. Compound `CC(C)(C)c1ccc(C(=O)NN=Cc2cc([N+](=O)[O-])ccc2Cl)cc1` [Compound 10, 4-(Tert-butyl)-N′-(2-chloro-5-nitrobenzylidene)benzohydrazide] came in with a 50% inhibitory concentration (IC50) of 63.5 ± 3.97 µM.

For the compound `CCOc1ccc(C=NNC(=O)c2ccc(C(C)(C)C)cc2)c(OC)c1` [Compound 11, 4-(Tert-butyl)-N′-(4-ethoxy-2-methoxybenzylidene)benzohydrazide], the IC50 amounted to 63.5 ± 2.97 µM. In the case of `CC(C)(C)c1ccc(C(=O)NN=Cc2cccc(O)c2)cc1` [Compound 12, 4-(Tert-butyl)-N′-(3-hydroxybenzylidene)benzohydrazide] it was 39.6 ± 11.5 µM. For `COc1cc(C=NNC(=O)c2ccc(C(C)(C)C)cc2)cc(OC)c1OC` [Compound 13, 4-(Tert-butyl)-N′-(3,4,5-trimethoxybenzylidene)benzohydrazide], the IC50 was determined as 80.9 ± 7.43 µM.

The compound `CN(C)c1ccc(C=NNC(=O)c2ccc(C(C)(C)C)cc2)cc1` [Compound 14, 4-(Tert-butyl)-N′-(4-(dimethylamino)benzylidene)benzohydrazide] had a 50% inhibitory concentration (IC50) of 81.2 ± 7.4 µM. In the case of `CC(C)(C)c1ccc(C(=O)NN=Cc2ccc(Cl)cc2Cl)cc1` [Compound 15, 4-(Tert-butyl)-N′-(2,4-dichlorobenzylidene)benzohydrazide] it was 82.2 ± 7.43 µM; in that of `CC(C)(C)c1ccc(C(=O)NN=Cc2cc(C(C)(C)C)c(O)c(C(C)(C)C)c2)cc1` [Compound 16, 4-(Tert-butyl)-N′-(3,5-di-tert-butyl-4-hydroxybenzylidene)benzohydrazide], 79 ± 7.53 µM; in that of `CC(C)(C)c1ccc(C(=O)NN=Cc2cc(Cl)cc(Cl)c2O)cc1` [Compound 17, N′-(3,5-Dichloro-2-hydroxybenzylidene)-4-tert-butylbenzohydrazide], 27.5 ± 1.65 µM.

In turn, `CC(C)(C)c1ccc(C(=O)NN=Cc2ccc([N+](=O)[O-])cc2)cc1` [Compound 18, N′-(4-Nitrobenzylidene)-4-tert-butylbenzohydrazide] came in with a half-inhibitory concentration (IC50) of 66.1 ± 1.79 µM.

In turn, `COc1cccc(OC)c1C=NNC(=O)c1ccc(C(C)(C)C)cc1` [Compound 19, 4-(Tert-butyl)-N′-(2,6-dimethoxybenzylidene)benzohydrazide] came in with an IC50 of 67.5 ± 4.16 µM. `CC(C)(C)c1ccc(C(=O)N/N=C/c2ccc(O)cc2)cc1` [Compound 20, 4-(t-But)-N′-(4-Hydroxybenzylidene)benzohydrazide] displayed an IC50 of 51.4 ± 11.5 µM.

Compound `COc1cc(OC)c(C=NNC(=O)c2ccc(C(C)(C)C)cc2)c(OC)c1` [Compound 21, N′-(2,4,6-Trimethoxybenzylidene)-4-tert-butylbenzohydrazide] displayed an IC50 of 71.3 ± 2.47 µM. As for `CC(C)(C)c1ccc(C(=O)N/N=C/c2ccc(Cl)c(O)c2Cl)cc1` [Compound 22], half-maximal inhibition (IC50) was put at 38.6 ± 11.5 µM. The figure for `COc1cc(C=NNC(=O)c2ccc(C(C)(C)C)cc2)ccc1O` [Compound 23] is 252 ± 6.82 µM; for `CC(C)(C)c1ccc(C(=O)N/N=C/c2ccccc2O)cc1` [Compound 24, 4-(t-But)-N′-(2-Hydroxybenzylidene)benzohydrazide] it is 37.5 ± 12.5 µM. On to `COc1ccc(/C=N/NC(=O)c2ccc(C(C)(C)C)cc2)cc1OC` [Compound 25, 4-(t-But)-N′-(3,4-Dimethoxybenzylidene)benzohydrazide], for which it took 13.4 ± 0.33 µM to reach half-maximal inhibition (IC50). In the case of `CC(C)(C)c1ccc(C(=O)N/N=C/c2cc(C(C)(C)C)cc(C(C)(C)C)c2O)cc1` [Compound 26, 4-(t-But)-N′-(3,5-Di-tert-butyl-2-hydroxybenzylidene)benzohydrazide], the IC50 came to 49.5 ± 12.7 µM.
